According to BindingDB's records for doi:10.1021/bi200552p (Astrazeneca Pharmaceuticals, 2011):
pIC50: −log10 of the molar value. Values joined by “and” are separate entries in the source; they are usually repeats but may differ in a detail not shown here. Equal entries are not always repeated.

Biological target: T1, Fatty-acid amide hydrolase 1 (Homo sapiens, UniProt O00519)
T1 sequence (O00519 whole entry): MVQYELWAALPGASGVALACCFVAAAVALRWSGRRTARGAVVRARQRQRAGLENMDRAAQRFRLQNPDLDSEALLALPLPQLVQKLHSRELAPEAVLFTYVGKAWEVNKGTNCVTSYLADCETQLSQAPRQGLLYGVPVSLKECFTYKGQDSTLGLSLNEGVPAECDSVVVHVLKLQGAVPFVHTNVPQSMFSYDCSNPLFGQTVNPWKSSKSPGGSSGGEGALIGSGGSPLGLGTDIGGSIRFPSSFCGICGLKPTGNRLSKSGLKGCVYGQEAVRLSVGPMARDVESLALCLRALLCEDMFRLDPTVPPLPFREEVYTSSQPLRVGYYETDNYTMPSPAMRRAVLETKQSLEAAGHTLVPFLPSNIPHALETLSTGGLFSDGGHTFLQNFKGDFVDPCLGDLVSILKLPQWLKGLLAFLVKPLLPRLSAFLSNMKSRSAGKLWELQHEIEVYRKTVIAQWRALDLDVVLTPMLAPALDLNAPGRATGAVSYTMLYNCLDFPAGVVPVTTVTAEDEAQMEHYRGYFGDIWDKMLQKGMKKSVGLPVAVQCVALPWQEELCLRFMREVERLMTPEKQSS
Assay: Inhibition Assay
Conditions: pH 8; 22 °C
Experimental: the enzyme activity of recombinant human FAAH was measured according to published procedures with minor modifications by either a fluorescent assay using D-AMC or a radioactive assay using tritium-labeled anandamide (3H-anandamide)51 as substrate.

- pIC50: 8.70 and 8.68 and 8.64 and 8.60 and 8.29 and 8.42
Structure (SMILES): COc1cccc2sc(-c3ccc(NC(=O)C4CCN(S(=O)(=O)c5cccs5)CC4)cc3)nc12 [Benzothiazole-based analogue, 1]
